# System: 282377-053-R-J1-PDC complex spheroids, viability
# Assay: Anticancer human tumor 282377-053-R-J1-PDC patient-derived colon adenocarcinoma cell line growth inhibition [GQUAD]
# Settings: for IC50: curve of first compound; for viability, T/C: stronger effect = lower value
# Summary of the method: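 Multi-cell-type spheroids of tumor cells with HUVEC and mesenchymal stem cells, treated with drug combinations. Concentrations descend in half-log steps from near clinical Cmax, or from 10 microM where Cmax is unknown; viability read-out.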
# [1] = second compound 0.0316 µM, first compound 0.0316 µM
# [2] = second compound 0.0316 µM, first compound 0.1 µM
# [3] = second compound 0.0316 µM, first compound 0.316 µM
# [4] = second compound 0.0316 µM, first compound 1 µM
# [5] = second compound 0.0316 µM, first compound 3.16 µM
# [6] = second compound 0.0316 µM, first compound 10 µM
# [7] = second compound 0.1 µM, first compound 0.0316 µM
# [8] = second compound 0.1 µM, first compound 0.1 µM
# [9] = second compound 0.1 µM, first compound 0.316 µM
# [10] = second compound 0.1 µM, first compound 1 µM
# [11] = second compound 0.1 µM, first compound 3.16 µM
# [12] = second compound 0.1 µM, first compound 10 µM
# [13] = second compound 0.316 µM, first compound 0.0316 µM
# [14] = second compound 0.316 µM, first compound 0.1 µM
# [15] = second compound 0.316 µM, first compound 0.316 µM
# [16] = second compound 0.316 µM, first compound 1 µM
# [17] = second compound 0.316 µM, first compound 3.16 µM
# [18] = second compound 0.316 µM, first compound 10 µM
# [19] = second compound 1 µM, first compound 0.0316 µM
# [20] = second compound 1 µM, first compound 0.1 µM
# [21] = second compound 1 µM, first compound 0.316 µM
# [22] = second compound 1 µM, first compound 1 µM
# [23] = second compound 1 µM, first compound 3.16 µM
# [24] = second compound 1 µM, first compound 10 µM
# [25] = second compound 3.16 µM, first compound 0.0316 µM
# [26] = second compound 3.16 µM, first compound 0.1 µM
# [27] = second compound 3.16 µM, first compound 0.316 µM
# [28] = second compound 3.16 µM, first compound 1 µM
# [29] = second compound 3.16 µM, first compound 3.16 µM
# [30] = second compound 3.16 µM, first compound 10 µM
# [31] = second compound 10 µM, first compound 0.0316 µM
# [32] = second compound 10 µM, first compound 0.1 µM
# [33] = second compound 10 µM, first compound 0.316 µM
# [34] = second compound 10 µM, first compound 1 µM
# [35] = second compound 10 µM, first compound 3.16 µM
# [36] = second compound 10 µM, first compound 10 µM
# 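Also: spheroids exposed to compounds for 7 days before readout.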
# 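For viability, T/C in this document: percent of vehicle DMSO control viability with 100% = untreated-like growth.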
compound,measurement,setting,value
CC1COCCN1c1cc(-c2ccnn2C)c2ccnc(-c3ccn[nH]3)c2n1 (stereo not drawn) + CN(C)c1ccc(Nc2c3ccc(NC(=O)CCN4CCCC4)cc3nc3cc(NC(=O)CCN4CCCC4)ccc23)cc1,IC50,second compound 0.0316 µM,0.612 µM
same,IC50,second compound 0.1 µM,0.717 µM
same,IC50,second compound 0.316 µM,0.48 µM
same,IC50,second compound 1 µM,0.559 µM
same,IC50,second compound 3.16 µM,1.08 µM
same,IC50,second compound 10 µM,0.745 µM
same,"viability, T/C",[1],86.5%
same,"viability, T/C",[2],88%
same,"viability, T/C",[3],61.9%
same,"viability, T/C",[4],40.6%
same,"viability, T/C",[5],34.6%
same,"viability, T/C",[6],26.5%
same,"viability, T/C",[7],91%
same,"viability, T/C",[8],75.7%
same,"viability, T/C",[9],67.1%
same,"viability, T/C",[10],41.7%
same,"viability, T/C",[11],32.8%
same,"viability, T/C",[12],24.8%
same,"viability, T/C",[13],82%
same,"viability, T/C",[14],65.4%
same,"viability, T/C",[15],56.8%
same,"viability, T/C",[16],38.3%
same,"viability, T/C",[17],38.5%
same,"viability, T/C",[18],26.4%
same,"viability, T/C",[19],79.1%
same,"viability, T/C",[20],101%
same,"viability, T/C",[21],67.3%
same,"viability, T/C",[22],36.7%
same,"viability, T/C",[23],32.6%
same,"viability, T/C",[24],27.8%
same,"viability, T/C",[25],84.5%
same,"viability, T/C",[26],74%
same,"viability, T/C",[27],67.4%
same,"viability, T/C",[28],48.6%
same,"viability, T/C",[29],38.6%
same,"viability, T/C",[30],26.7%
same,"viability, T/C",[31],85.1%
same,"viability, T/C",[32],75.4%
same,"viability, T/C",[33],64.1%
same,"viability, T/C",[34],42.7%
same,"viability, T/C",[35],38.6%
same,"viability, T/C",[36],29%
CC1COCCN1c1cc(C2(O)CC3CCC(C2)O3)c2cnn(-c3ccn[nH]3)c2n1 (stereo not drawn) + CN(C)c1ccc(Nc2c3ccc(NC(=O)CCN4CCCC4)cc3nc3cc(NC(=O)CCN4CCCC4)ccc23)cc1,IC50,second compound 0.0316 µM,0.73 µM
same,IC50,second compound 0.1 µM,0.425 µM
same,IC50,second compound 0.316 µM,0.632 µM
same,IC50,second compound 1 µM,0.649 µM
same,IC50,second compound 3.16 µM,0.825 µM
same,IC50,second compound 10 µM,0.734 µM
same,"viability, T/C",[1],93.4%
same,"viability, T/C",[2],81.5%
same,"viability, T/C",[3],65.1%
same,"viability, T/C",[4],44.9%
same,"viability, T/C",[5],28.1%
same,"viability, T/C",[6],20.9%
same,"viability, T/C",[7],82.5%
same,"viability, T/C",[8],87.5%
same,"viability, T/C",[9],55.4%
same,"viability, T/C",[10],37.3%
same,"viability, T/C",[11],37.6%
same,"viability, T/C",[12],22.6%
same,"viability, T/C",[13],87.2%
same,"viability, T/C",[14],92.6%
same,"viability, T/C",[15],58.3%
same,"viability, T/C",[16],42.3%
same,"viability, T/C",[17],34.8%
same,"viability, T/C",[18],20.6%
same,"viability, T/C",[19],102%
same,"viability, T/C",[20],89%
same,"viability, T/C",[21],63.6%
same,"viability, T/C",[22],41%
same,"viability, T/C",[23],29.8%
same,"viability, T/C",[24],21.5%
same,"viability, T/C",[25],81.9%
same,"viability, T/C",[26],81.2%
same,"viability, T/C",[27],80.9%
same,"viability, T/C",[28],43.7%
same,"viability, T/C",[29],33.3%
same,"viability, T/C",[30],23.4%
same,"viability, T/C",[31],93%
same,"viability, T/C",[32],72.8%
same,"viability, T/C",[33],86.6%
same,"viability, T/C",[34],37.5%
same,"viability, T/C",[35],28.6%
same,"viability, T/C",[36],21.3%
CC1COCCN1c1cc(C2(S(C)(=N)=O)CC2)nc(-c2ccnc3[nH]ccc23)n1 (stereo not drawn) + CN(C)c1ccc(Nc2c3ccc(NC(=O)CCN4CCCC4)cc3nc3cc(NC(=O)CCN4CCCC4)ccc23)cc1,IC50,second compound 0.0316 µM,8.45 µM
same,IC50,second compound 0.1 µM,6.78 µM
same,IC50,second compound 0.316 µM,6.09 µM
same,IC50,second compound 1 µM,> 10 µM
same,IC50,second compound 3.16 µM,> 10 µM
same,IC50,second compound 10 µM,> 10 µM
same,"viability, T/C",[1],102%
same,"viability, T/C",[2],90.3%
same,"viability, T/C",[3],73%
same,"viability, T/C",[4],79.6%
same,"viability, T/C",[5],67.8%
same,"viability, T/C",[6],42.2%
same,"viability, T/C",[7],95.1%
same,"viability, T/C",[8],77.2%
same,"viability, T/C",[9],81.2%
same,"viability, T/C",[10],76.5%
same,"viability, T/C",[11],69.3%
same,"viability, T/C",[12],40.5%
same,"viability, T/C",[13],85.5%
same,"viability, T/C",[14],83.3%
same,"viability, T/C",[15],74.4%
same,"viability, T/C",[16],76.2%
same,"viability, T/C",[17],61.8%
same,"viability, T/C",[18],40.8%
same,"viability, T/C",[19],89.8%
same,"viability, T/C",[20],83.7%
same,"viability, T/C",[21],94.2%
same,"viability, T/C",[22],67.6%
same,"viability, T/C",[23],58.8%
same,"viability, T/C",[24],46.2%
same,"viability, T/C",[25],86%
same,"viability, T/C",[26],89.2%
same,"viability, T/C",[27],86.3%
same,"viability, T/C",[28],68.5%
same,"viability, T/C",[29],64.4%
same,"viability, T/C",[30],49.6%
same,"viability, T/C",[31],82.7%
same,"viability, T/C",[32],88.4%
same,"viability, T/C",[33],116%
same,"viability, T/C",[34],59.7%
same,"viability, T/C",[35],80%
same,"viability, T/C",[36],56%
COc1ccc([C@@H](O)c2cc(-c3ncnc4cc(N5CCOCC5)ccc34)c(F)cc2Cl)nn1 + CN(C)c1ccc(Nc2c3ccc(NC(=O)CCN4CCCC4)cc3nc3cc(NC(=O)CCN4CCCC4)ccc23)cc1,IC50,second compound 0.0316 µM,> 10 µM
same,IC50,second compound 0.1 µM,> 10 µM
same,IC50,second compound 0.316 µM,9.44 µM
same,IC50,second compound 1 µM,> 10 µM
same,IC50,second compound 3.16 µM,> 10 µM
same,IC50,second compound 10 µM,> 10 µM
same,"viability, T/C",[1],96.4%
same,"viability, T/C",[2],92.5%
same,"viability, T/C",[3],80.6%
same,"viability, T/C",[4],71.3%
same,"viability, T/C",[5],81.7%
same,"viability, T/C",[6],64.9%
same,"viability, T/C",[7],89.2%
same,"viability, T/C",[8],75.3%
same,"viability, T/C",[9],95%
same,"viability, T/C",[10],72.8%
same,"viability, T/C",[11],86.2%
same,"viability, T/C",[12],60.1%
same,"viability, T/C",[13],89.1%
same,"viability, T/C",[14],81%
same,"viability, T/C",[15],76.4%
same,"viability, T/C",[16],78.2%
same,"viability, T/C",[17],82.1%
same,"viability, T/C",[18],48.3%
same,"viability, T/C",[19],81.2%
same,"viability, T/C",[20],83.2%
same,"viability, T/C",[21],97.6%
same,"viability, T/C",[22],62.4%
same,"viability, T/C",[23],77.4%
same,"viability, T/C",[24],66.6%
same,"viability, T/C",[25],87.3%
same,"viability, T/C",[26],83.8%
same,"viability, T/C",[27],81.2%
same,"viability, T/C",[28],85%
same,"viability, T/C",[29],102%
same,"viability, T/C",[30],61.3%
same,"viability, T/C",[31],89.3%
same,"viability, T/C",[32],72.6%
same,"viability, T/C",[33],90.1%
same,"viability, T/C",[34],74.5%
same,"viability, T/C",[35],76.4%
same,"viability, T/C",[36],79.4%
